Reference: patent publication US20080241177A1 (priority 2003, published 2008)
“Also recorded” adds a separate entry of the source.

Tests used:
[1] = tested on: serum antibodies; experiment: Immunization of sheep with the vaccine, anti-peptide ELISA; details: for Response higher in the first immunized sheep, on average: first versus second sheep; for Response to peptide using the polyclonal sheep sera or rabbit sera: polyclonal sheep sera (FIG. 2A) or rabbit sera (data not shown); for Polyclonal sera with reactivity to peptide obtained from immunized sheep: 200 μg peptide mixture in CpG DNA adjuvant, prime and boost
[2] = Delayed type hypersensitivity (DTH) testing; type: in vivo, human; details: for Number of patients with a peptide-specific DTH response: six trial patients who underwent DTH testing; for Induration area, DTH testing: 48 hours following intradermal injection of individual peptide, after four vaccinations
Description: Delayed type hypersensitivity (DTH) testing was carried out 1 month after the final vaccination. […] Induration of […]10 mm^2 at 48 hours after injection was considered positive.

[3] = tested on: serum antibodies; experiment: ELISA for serum antibodies specific for the individual vaccine peptides, human sera; details: for Number of individuals with a humoral response to the vaccine peptides, Cancer controls n = 54 / Percent of individuals with a humoral response to the vaccine peptides, Cancer controls n = 54: non-trial cancer controls, sera 1:25 dilution; for Number of individuals with a humoral response to the vaccine peptides, Trial subjects n = 6 / Percent of individuals with a humoral response to the vaccine peptides, Trial subjects n = 6: trial subjects who completed four vaccinations, detectable response at any time point considered positive
[4] = normal controls, n = 30, not vaccinated

Substance	Response higher in the first immunized sheep, on average [1] [%]	Response to peptide using the polyclonal sheep sera or rabbit sera [1]	Polyclonal sera with reactivity to peptide obtained from immunized sheep ([1]; two sheep)	Number of patients with a peptide-specific DTH response [2]	Number of individuals with a humoral response to the vaccine peptides, Cancer controls n = 54 [3]	Number of individuals with a humoral response to the vaccine peptides, Normal controls n = 30 [3, 4]	Number of individuals with a humoral response to the vaccine peptides, Trial subjects n = 6 [3]	Induration area, DTH testing ([2]; patient 012)	Induration area, DTH testing ([2]; patient 014)	Induration area, DTH testing ([2]; patient 015)	Induration area, DTH testing ([2]; patient 016)	Induration area, DTH testing ([2]; patient 017)	Induration area, DTH testing ([2]; patient 018)	also measured
H-YFCSRVKAGGPDYWGQGT-OH [Peptide 6]	50	positive responses	obtained from both sheep	responses were observed in at least one individual for all of the peptides, except for peptides 3 and 6	0	0	0	–	–	–	–	–	–	Number of individuals with a humoral response to the vaccine peptides, Trial subjects n = 6 ([3]; listed as peptide 6): No patient demonstrated a response
H-AVYYCLLQALKHWGQGT-OH [Peptide 2]	50	–	obtained from both sheep	five	1	0	4	189 mm^2	20 mm^2	86 mm^2	Neg (Neg indicates that induration (if any) was less than 10 mm^2)	71 mm^2	38 mm^2	Percent of individuals with a humoral response to the vaccine peptides, Cancer controls n = 54 [3]: 1.9%; Isotype of peptide-specific serum antibodies ([3]; subject 012): IgG1; Isotype of peptide-specific serum antibodies ([3]; subject 014): IgG1 and IgG3; Isotype of peptide-specific serum antibodies ([3]; subject 015): IgG1 and IgG3; Isotype of peptide-specific serum antibodies ([3]; subject 016): IgG4; Percent of individuals with a humoral response to the vaccine peptides, Trial subjects n = 6 [3]: 66.7%; Number of individuals with a humoral response to the vaccine peptides, Trial subjects n = 6 ([3]; listed as peptide 2): four of the six
H-AGLFCQQYYTTPLTFGGGT-OH [Peptide 4]	50	positive responses	obtained from both sheep	one	0	0	0	Neg (Neg indicates that induration (if any) was less than 10 mm^2)	Neg (Neg indicates that induration (if any) was less than 10 mm^2)	13 mm^2	Neg (Neg indicates that induration (if any) was less than 10 mm^2)	Neg (Neg indicates that induration (if any) was less than 10 mm^2)	Neg (Neg indicates that induration (if any) was less than 10 mm^2)	Number of individuals with a humoral response to the vaccine peptides, Trial subjects n = 6 ([3]; listed as peptide 4): No patient demonstrated a response
H-KLLIHWASTRESGVPDR-OH [Peptide 3]	–	positive responses	neither animal; also recorded: could not be generated	responses were observed in at least one individual for all of the peptides, except for peptides 3 and 6	0	1	0	–	–	–	–	–	–	Percent of individuals with a humoral response to the vaccine peptides, Normal controls n = 30 [3, 4]: 3.3%; Number of individuals with a humoral response to the vaccine peptides, Trial subjects n = 6 ([3]; listed as peptide 3): No patient demonstrated a response
H-LLIYLGSTRASGVPDR-OH [Peptide 7]	–	positive responses	neither animal; also recorded: could not be generated	two	1	0	0	16 mm^2	Neg (Neg indicates that induration (if any) was less than 10 mm^2)	Neg (Neg indicates that induration (if any) was less than 10 mm^2)	39 mm^2	Neg (Neg indicates that induration (if any) was less than 10 mm^2)	Neg (Neg indicates that induration (if any) was less than 10 mm^2)	Percent of individuals with a humoral response to the vaccine peptides, Cancer controls n = 54 [3]: 1.9%; Number of individuals with a humoral response to the vaccine peptides, Trial subjects n = 6 ([3]; listed as peptide 7): No patient demonstrated a response
H-PKLLIYKASSLESGVPSR-OH [HIV-L2, reference compound]	–	–	–	–	–	–	–	Neg (Neg indicates that induration (if any) was less than 10 mm^2)	Neg (Neg indicates that induration (if any) was less than 10 mm^2)	Neg (Neg indicates that induration (if any) was less than 10 mm^2)	Neg (Neg indicates that induration (if any) was less than 10 mm^2)	Neg (Neg indicates that induration (if any) was less than 10 mm^2)	Neg (Neg indicates that induration (if any) was less than 10 mm^2)	–
H-GVYYCMQGLQTPYTFGEGT -OH (H-GVYYCMQGLQTPYTFGEGT-OH) [Peptide 8]	–	–	obtained from both sheep	three	0	0	2	113 mm^2	Neg (Neg indicates that induration (if any) was less than 10 mm^2)	38 mm^2	Neg (Neg indicates that induration (if any) was less than 10 mm^2)	44 mm^2	Neg (Neg indicates that induration (if any) was less than 10 mm^2)	Serum antibody titres, first versus second immunized sheep ([1]; two sheep): equivalent; Isotype of peptide-specific serum antibodies ([3]; subject 012): undetectable; Isotype of peptide-specific serum antibodies ([3]; subject 015): undetectable; Percent of individuals with a humoral response to the vaccine peptides, Trial subjects n = 6 [3]: 33.3%; Number of individuals with a humoral response to the vaccine peptides, Trial subjects n = 6 ([3]; listed as peptide 8): two
